This is an account of results in US20080234345A1, “METHOD FOR REDUCING OR ALLEVIATING INFLAMMATION IN THE DIGESTIVE TRACT” (Gene Logic Inc., priority 2006, published 2008).

The test system of data set [1] is DSS-induced colitis in Balb/c mice. Briefly: DSS-induced colitis in Balb/c mice (Example 7). The format is in vivo. The following applies: s.c. b.i.d., GL1001 300 mg/kg, sulfasalazine 150 mg/kg. How it is done: A study was designed with six groups of Balb/c mice: naïve control, DSS followed by vehicle, DSS followed by GL1001 30 mg/kg/day, DSS followed by GL1001 100 mg/kg/day, DSS followed by GL1001 300 mg/kg/day, and DSS followed by sulfasalazine 150 mg/kg/day. Administration of DSS was via drinking water, from day 1 to day 6 of the study. […] Administration of vehicle, GL1001 and sulfasalazine was subcutaneous, twice daily, from day 6 until termination of the study (day 16).
Body weight of each animal was measured at days 1, 3 and 5 (pre-initiation of GL1001 or sulfasalazine treatment) and at days 7, 9, 11 and 13 (post-initiation of GL1001 or sulfasalazine treatment). On these same days, disease activity measurements were recorded, including: • (a) rectal prolapse (0=no prolapse, 1=partial prolapse, 2=moderate prolapse, 3=full prolapse); • (b) stool consistency (0=solid pellet, 1=semi-solid, 2=soft stool, 3=diarrhea); and • (c) fecal occult blood (0=no blood present, 1=occult blood, 2=gross blood).
At termination of the study, colon length was determined and histological analysis was conducted as in Example 6.

The next data set has as its system CD. Conditions: cited from earlier work.
The subject of another data set is UC. Conditions: cited from earlier work.
A further data set deals with NF-κB. Conditions: in CD; Guidi et al. (2005); cited from earlier work.

Take `O=C(O)c1cc(/N=N/c2ccc(S(=O)(=O)Nc3ccccn3)cc2)ccc1O` [sulfasalazine, reference compound]: in data set [1] (day 7), the fecal occult blood result is “reduces” and the stool consistency entry is “No significant effect”. Also, in data set [1] (day 9), the percentage weight loss result is on record as “No significant effect” and the rectal prolapse result is “reduces”. For the same molecule, in data set [1], the “distal colon crypt score” value was “reduces”, the “distal colon inflammation score” value is listed as “reduces”, the “distal colon total histopathology score” value is given as “reduces” and the “reduction in colon length” value is on record as “inhibits reduction”.

Turning to “Infliximab: anti-TNFα monoclonal antibody”, in the data set with CD (CD, after a single dose), the “induction of remission rate” value was 50% and the response rate was 80%. In addition, in the data set with CD (fistulizing CD), the “fistula responds (closes), patients” value is 68%. Besides, in the data set on CD (in vivo), the “patients who develop an abscess” value is given as 12%. In addition, the response rates in the data set with UC is on record as 50-70%. For the same molecule, the NF-κB activity result in the data set with NF-κB was “decrease”.
